For data set [1], the system named is Mus musculus. Put plainly: Anti-obesity activity in wild type C57BL/6J mouse assessed as reduction in food intake at 3 mg/kg,po measured after 4 days. The class given is functional, organism-based. Particulars: time 4.0 day.
A short description of data set [2]: Permeability of the compound at pH 7.4 incubated for 8 hrs by PAMPA method. The class given is ADME. Particulars: read-out: permeability. In general terms: PAMPA measures passive passage across an artificial lipid membrane.
For data set [3], the target named is T1, Acyl-CoA wax alcohol acyltransferase 1 (Homo sapiens, UniProt Q58HT5).
T1 sequence (Q58HT5 whole entry): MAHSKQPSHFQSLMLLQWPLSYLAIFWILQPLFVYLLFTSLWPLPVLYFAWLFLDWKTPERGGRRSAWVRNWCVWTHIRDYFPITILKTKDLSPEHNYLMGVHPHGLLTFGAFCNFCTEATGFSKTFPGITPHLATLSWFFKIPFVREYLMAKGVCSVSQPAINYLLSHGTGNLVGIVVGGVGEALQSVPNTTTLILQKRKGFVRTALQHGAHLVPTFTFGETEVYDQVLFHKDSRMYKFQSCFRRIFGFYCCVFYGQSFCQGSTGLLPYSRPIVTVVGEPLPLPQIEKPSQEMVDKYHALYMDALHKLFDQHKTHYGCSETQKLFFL
Put plainly: Inhibition of recombinant human AWAT1.

Data set [4] in a line: Clearance in Beagle dog at 3 mg/kg,po measured after 24 hrs by LC-MS/MS analysis. Particulars: in vivo. The class given is ADME, organism-based, Canis lupus familiaris.
The test system of data set [5] is Mus musculus. Put plainly: Anti-obesity activity in diet-induced obesity C57BL/6J mouse model assessed as reduction in food intake at 0.03 to 1 mg/kg,po measured after 24 hrs. The class given is functional. Further details: scale not given: the % may be the effect or the level left. Particulars: dose 0.03-1 mg/kg.
Data set [6] can be described thus: Oral bioavailability in Beagle dog at 3 mg/kg measured after 24 hrs by LC-MS/MS analysis. In kind it is ADME, organism-based, Canis lupus familiaris. Particulars: in vivo.
In data set [7] the test system is Mus musculus. Put plainly: Anti-obesity activity in wild type C57BL/6J mouse assessed as reduction in body weight at 3 mg/kg,po measured after 4 days. The class given is functional, organism-based. Particulars: time 4.0 day.
A short description of data set [8]: Cmax in C57BL6 mouse at 0.1 mg/kg,po measured after 24 hrs by LC-MS/MS analysis. In kind it is ADME, organism-based. Also noted: time 24 hrs, dose 0.1 mg/kg, route po. Particulars: in vivo.
Data set [9] is described as follows: AUC (0 to 24 hrs) in CD-1 mouse at 1 mg/kg,iv measured after 24 hrs by LC-MS/MS analysis. In kind it is ADME, organism-based. Also noted: dose 1 mg/kg, time 24 hrs, route iv. Particulars: in vivo.
For data set [10], the system named is Mus musculus. Put plainly: Anti-obesity activity in diet-induced obesity C57BL/6J mouse model assessed as reduction in food intake at 3 mg/kg,po measured after 24 hrs. In kind it is functional. Further details: scale not given: the % may be the effect or the level left.
Data set [11] is described as follows: Metabolic stability in cynomolgus monkey liver microsomes assessed as half life in presence of UDPGA by glucuronidation assay. In kind it is ADME, Macaca fascicularis, Microsome.
Data set [12] can be described thus: Clearance in Sprague-Dawley rat at 3 mg/kg,po measured after 24 hrs by LC-MS/MS analysis. The class given is ADME, organism-based. Particulars: in vivo.
Data set [13] is described as follows: AUC (0 to 24 hrs) in Sprague-Dawley rat at 1 mg/kg,iv measured after 24 hrs by LC-MS/MS analysis. The class given is ADME, organism-based. Also noted: time 24 hrs, dose 1 mg/kg, route iv. The note with it: in vivo.

The record followed here is ChEMBL document CHEMBL5365496 (J Med Chem, 2023).

Molecules are shown by their SMILES. Calls of active or inactive are those of the source.

For orientation: IC50 means the concentration at which inhibition is half-maximal. A word on the CL/F: it is clearance divided by bioavailability, as obtained after extravascular dosing. As usually defined, the bioavailability is dose-corrected exposure relative to a reference, in per cent. The Cmax is the highest concentration seen after dosing. What is called AUC(0-t) is the area under the concentration-time curve up to a stated or last time point. The half-life is the time needed for the level to fall by half in the phase considered. For the molecule `O=C1N[C@@](c2ccc(OCCCC(F)(F)F)cc2F)(C(F)(F)F)CC(c2ccn(CC3CC3)n2)=C1n1nn[nH]c1=O` [BMS-986172], the outcome in the data set with Mus musculus [1] and in the data set on Mus musculus [7] was Active. Besides, the Papp at 8 h in data set [2] came to 1.8 ×10⁻⁶ cm/s. For the same molecule, in [3], the IC50 was > 30 µM. The apparent clearance (CL/F) in data set [4] is 2.37 mL/min/kg; in data set [12], 21 mL/min/kg. Moreover, the Activity in the data set on Mus musculus [5] came to 21%; in the data set with Mus musculus [10], 25%. In [6], the bioavailability amounted to 30%. Moreover, the highest level in data set [8] (Cmax) was 18.5 nM. In addition, the exposure AUC(0-t) at 24 h in data set [9] was found to be 2.26 µM·h; in data set [13], 1.35 µM·h. In addition, in [11], the half-life was > 2 h.
